Results as given in US20040023886A1, “Method for treating neurological conditions and inducing immunosuppression with cephaibols” (Aventis Pharma Deutschland Gmbh, priority 2002, published 2004).
Entries after “also recorded” stand apart in the source; their conditions may differ. Where a SMILES comes first, the peptide text is derived from it. [ ]: non-standard residue; d: D form. Hyp = O=C(O)[CH]1C[CH](O)CN1; Phe(ol) = N[CH](CO)Cc1ccccc1; Iva = CC[C](C)(N)C(=O)O; Aib = CC(C)(N)C(=O)O

Key:
Phoma destructiva = assay: Induction of pigment formation in Phoma destructiva, punched-hole plate agar diffusion test; type: cell-based; details: 50 µL of test solution per hole, 20 to 25° C., 4 to 5 days
Text: The induction of pigment formation in the fungus Phoma destructiva is a test model for, inter alia, identifying a potential immunosuppressant effect in test substances. The implementation of the Phoma destructiva test has been described by K. Dornberger et al. in J. Antibiotics, §, 977-989,1995.
The organism Phoma destructiva is a fungus which is known to be pathogenic to plants and which grows, in feebly colored colonies, on agar plates which have been inoculated with vegetative mycelium. Cell differentiation processes, which are accompanied by the formation of a pigment and therefore enable cell differentiation to be detected, are initiated under the influence of special inducers. The pigment, which is a melanin-like substance, can be recognized by its color and quantified photometrically or by measuring the zone size.
The fungus Phoma destructiva was cultured on sloping agar tubes containing culture medium A or B at from 20 to 25° C. and then stored at from 4 to 6° C. and reinoculated in a 2-year rhythm.
The fungus Phoma destructiva was cultured at from 20 to 25° C. for 11 days on medium B in 100 mm diameter petri dishes and, after that, washed off with 10 ml of a sterile 0.9% solution of NaCl. The wash-off can be used for 5 days when stored at 8° C.
The agar diffusion test method was a modification of the standardized agar diffusion assay described in the European Pharmacopoeia [Deutscher Apothekerverlag Stuttgart, pages 113-118, 1997]: 40 mL of test agar medium were liquefied and brought to a constant temperature of 50° C.; from 8 to 10 mL of the inoculation culture were added under sterile conditions and the mixture was then poured into 150 mm diameter test plates. After the plates had cooled, 12 punched holes of 9 mm in diameter were arranged on the plate using a punching implement [J, V. Benett et al. Appl. Micr.1.1;, 170-177, 1966]. The test holes were loaded with 50JiL of the solution to be tested, with one test hole containing cyclosporin as the control substance (1 μg of cyclosporin A in 50 μL of methanol). […]

laboratory mice [1] = assay: Hypothermia (neuroleptic effect, mouse model); type: in vivo; details: 10 mg/kg intraperitoneal
Text: (§1) Neuroleptic effect of the cephaibols in the mouse model

laboratory mice [2] = assay: Influence on spontaneous motility (neuroleptic effect, mouse model); type: in vivo; details: 10 mg/kg intraperitoneal, observed from 5 min up to 24 hours
Description: as §1
The influence of cephaibols A, B, C, D and E on motoricity in laboratory mice was observed over various periods of time (from 5 min up to 24 hours).
Fright reactions (noises) were retained, thereby ruling out the possibility of the cephaibols having a narcotic effect in the experimental arrangement.

platelet aggregation = details: literature; cited from earlier work

Compound | pigment formation in Phoma destructiva (Phoma destructiva) | body temperature as compared with the control animals (laboratory mice [1]) | motoricity (climbing) in comparison with the control mice (laboratory mice [2]) | platelet aggregation (platelet aggregation)
CCC(C)(NC(=O)C(CC(C)C)NC(=O)CNC(=O)C(C)(C)NC(=O)C(C)(C)NC(=O)C(C)(C)NC(=O)C(C)(C)NC(=O)C(Cc1ccccc1)NC(C)=O)C(=O)NC(C)(C)C(=O)N1CC(O)CC1C(=O)NC(CCC(N)=O)C(=O)NC(C)(CC)C(=O)N1CC(O)CC1C(=O)NC(C)(C)C(=O)N1CCCC1C(=O)NC(CO)Cc1ccccc1 (stereo not drawn) [cephaibol A, AcPhe-Aib-Aib-Aib-Aib-Gly-Leu-Iva-Aib-Hyp-Gln-Iva-Hyp-Aib-Pro-Phe-ol] (Ac-F[Aib][Aib][Aib][Aib]GL[Iva][Aib][Hyp]Q[Iva][Hyp][Aib]P[Phe(ol)]; configuration not given here) | particularly pronounced | marked reduction | impaired | 
CCC(C)(NC(=O)C(CC(C)C)NC(=O)CNC(=O)C(C)(CC)NC(=O)C(C)(C)NC(=O)C(C)(C)NC(=O)C(C)(C)NC(=O)C(Cc1ccccc1)NC(C)=O)C(=O)NC(C)(C)C(=O)N1CC(O)CC1C(=O)NC(CCC(N)=O)C(=O)NC(C)(CC)C(=O)N1CC(O)CC1C(=O)NC(C)(C)C(=O)N1CCCC1C(=O)NC(CO)Cc1ccccc1 (stereo not drawn) [cephaibol B, AcPhe-Aib-Aib-Aib-Iva-Gly-Leu-Iva-Aib-Hyp-Gln-Iva-Hyp-Aib-Pro-Phe-ol] (Ac-F[Aib][Aib][Aib][Iva]GL[Iva][Aib][Hyp]Q[Iva][Hyp][Aib]P[Phe(ol)]; configuration not given here) | particularly pronounced | marked reduction; also recorded: particularly pronounced | impaired; also recorded: particularly pronounced | 
CCC(C)(NC(=O)C(CC(C)C)NC(=O)CNC(=O)C(C)(C)NC(=O)C(C)(C)NC(=O)C(C)(C)NC(=O)C(C)(C)NC(=O)C(Cc1ccccc1)NC(C)=O)C(=O)NC(C)(C)C(=O)N1CC(O)CC1C(=O)NC(CCC(N)=O)C(=O)NC(C)(C)C(=O)N1CC(O)CC1C(=O)NC(C)(C)C(=O)N1CCCC1C(=O)NC(CO)Cc1ccccc1 (stereo not drawn) [cephaibol C, AcPhe-Aib-Aib-Aib-Aib-Gly-Leu-Iva-Aib-Hyp-Gln-Aib-Hyp-Aib-Pro-Phe-ol] (Ac-F[Aib][Aib][Aib][Aib]GL[Iva][Aib][Hyp]Q[Aib][Hyp][Aib]P[Phe(ol)]; configuration not given here) | particularly pronounced | marked reduction; also recorded: particularly pronounced | impaired; also recorded: particularly pronounced | 
CCC(C)(NC(=O)C(CC(C)C)NC(=O)CNC(=O)C(C)(C)NC(=O)C(C)(C)NC(=O)C(C)(C)NC(=O)C(C)(C)NC(=O)C(Cc1ccccc1)NC(C)=O)C(=O)NC(C)(C)C(=O)N1CC(O)CC1C(=O)NC(CCC(N)=O)C(=O)NC(C)(C)C(=O)N1CC(O)CC1C(=O)NC(C)(C)C(=O)N1CCCC1C(=O)NC(CO)Cc1ccccc1 (stereo not drawn) [cephaibol D, AcPhe-Aib-Aib-Aib-Aib-Gly-Leu-Aib-Aib-Hyp-Gln-Aib-Hyp-Aib-Pro-Xaa5] (Ac-F[Aib][Aib][Aib][Aib]GL[Iva][Aib][Hyp]Q[Aib][Hyp][Aib]P[Phe(ol)]; configuration not given here) |  |  | impaired | 
Clonostachin |  |  |  | inhibits
